Source: patent US20160354781A1, “MICROFLUIDIC PLATE FOR SAMPLE PROCESSING” (National Taiwan University, priority 2015, published 2016)
In brackets after ≈: the same amount, converted by molar mass.

Assays:
[1] = system: MDA-MB-231 cells; assay: Anticancer drug screening in 96-well plates (control), MTT assay; format: cell-based; conditions: Homo sapiens, 96-well control, 24 hour drug treatment, read-out: IC50 (concentration yielding a 50% decrease in normalized percentage cell viability)
Method: The anticancer drug screening of cell lines was conducted with MGP and on 96-well plates as control. Two typical breast cancer lines, MCF-7 (ATCC, HTB-22) and MDA-MB-231 (ATCC, HTB-26) were used. The reason to choose the two types of cancer cell lines was that MCF-7 stood for typical luminal type cancer cells while MDA-MB-231 stood for normal-like typically. By using the two cell lines in drug response assay on the microfluidic device, we could examine whether MGP was workable to both the two types of cancer cells since primary samples may have diversely cancer cell types. Anticancer drug screening using cell lines could confirm the feasibility of applying MGP to individualized chemosensitivity assay on primary patient samples. In addition, cell lines on MGP could help optimize the operation of drug response assay beforehand, which would reduce the difficulties when dealing with primary samples. […]
Anticancer drug screening was also conducted using conventional 96-well plates as controls. […] The quantity of cells in single well was determined to coordinate the same cell-to-substrate ratio as in MGP (1000 cells/1.766 mm2). […] Finally, a plate reader (MQX 200, BioTek) was used to determine the absorbance of the DMSO at 570 nm, which was used to determine the number of living cells. […]

[2] = system: MDA-MB-231 cells; assay: Anticancer drug screening in the Micro-Gap Plate (MGP), viability by tri-fluorescent staining; format: cell-based; conditions: Homo sapiens, 24 hour drug treatment, viability normalized against untreated cells, read-out: IC50 (concentration yielding a 50% decrease in normalized percentage cell viability)
Method: The anticancer drug screening of cell lines was conducted with MGP and on 96-well plates as control. Two typical breast cancer lines, MCF-7 (ATCC, HTB-22) and MDA-MB-231 (ATCC, HTB-26) were used. The reason to choose the two types of cancer cell lines was that MCF-7 stood for typical luminal type cancer cells while MDA-MB-231 stood for normal-like typically. By using the two cell lines in drug response assay on the microfluidic device, we could examine whether MGP was workable to both the two types of cancer cells since primary samples may have diversely cancer cell types. Anticancer drug screening using cell lines could confirm the feasibility of applying MGP to individualized chemosensitivity assay on primary patient samples. In addition, cell lines on MGP could help optimize the operation of drug response assay beforehand, which would reduce the difficulties when dealing with primary samples. Moreover, the method of viability assessment could be examined on MGP using cell lines since fluorescent images was one of most important factors to determine the viability of cancer cells after drug treatment. […]
Primary cells were suspended (16.7 cells/0.1 μL) in culture medium (the formula of culture medium is stated in the previous section). […] The volume of cell suspension in each unit was determined on the basis of the final density of cell suspension as stated in previous section. […]

## CC(=O)O[C@@]12CO[C@@H]1C[C@H](O)[C@@]1(C)C(=O)[C@H](O)C3=C(C)[C@@H](OC(=O)[C@H](O)[C@@H](NC(=O)OC(C)(C)C)c4ccccc4)C[C@@](O)([C@@H](OC(=O)c4ccccc4)[C@H]21)C3(C)C [docetaxel]
[1]
  IC50: 25.4 µg/mL (≈ 31.4 µM)
[2]
  IC50: 23.4 µg/mL (≈ 29 µM)
